Reference: BindingDB's records for doi:10.1021/jm00017a010 (Sapienza University of Rome, 1995)

target: T1, Gag-Pol polyprotein [588-1027]/[588-1147] (Human immunodeficiency virus 1, UniProt P04585); test: HIV-1 RT Assay; conditions: not given
T1 construct: 588-1027; 588-1147
Source text: The IC50 of reverse transcriptase is the concentration that inhibits 50% of recombinant HIV-1 RT RNA-directed DNA polymerase activity in vitro.

Row | SMILES | IC50 [µM]
1 | CC1(C)C(=O)NC(SC2CCCC2)=N/C1=C/c1ccccc1 [(6E)-2-(cyclopentylsulfanyl)-5,5-dimethyl-6-(phenylmethylidene)-3,4,5,6-tetrahydropyrimidin-4-one] | > 10
2 | CC1(C)C(=O)NC(SC2CCCCC2)=N/C1=C/c1ccccc1 [S-DABO] | > 10

same assay, conditions: pH 7.8; 37 °C

Row | SMILES | IC50 [µM]
3 | Cc1cccc(Cc2nc(S)nc(O)c2C)c1 [4-Hydroxy-2-mercapto-5-methyl-6-(3-methylbenzyl)pyrimidine] | > 10
4 | Cc1cccc(Cc2cc(=O)[nH]c(=S)[nH]2)c1 [6-[(3-methylphenyl)methyl]-2-sulfanylidene-1,2,3,4-tetrahydropyrimidin-4-one] | > 10
5 | Cc1c(O)nc(S)nc1Cc1ccccc1 [6-benzyl-4-hydroxy-2-mercapto-5-methylpyrimidine] | > 10
6 | CC(C)Sc1nc(Cc2ccccc2)cc(=O)[nH]1 [S-DABO] | > 10
7 | CSc1nc(Cc2ccccc2)cc(=O)[nH]1 [S-DABO] | > 10
8 | CSc1nc(O)cc(Cc2cccc(C)c2)n1 [S-DABO] | > 10
